Data as given in US20100197611A1, “ALTERNATIVE AGENT WITH VITAMIN D-LIKE ACTIVITY AND AN IMPROVING AGENT FOR INTESTINAL FUNCTION” (priority 2003, published 2010).

Assays:
calbindin D9K = assay: Intestinal calbindin D9K expression in aged rats (Western blotting); assay type: in vivo; details: aged rats (9 month, male, SD-IGS), 1.9% by weight in feed for 10 days, compared to control group; FIG. 4
Excerpt: On 10 days after the test started, rats were made starved by fasting for all day and night, then the small intestines were taken out, followed by extraction, immediate opening of the intestinal canal and stripping off the epitherial mucous membrane to prepare protein extract samples according to the method described by H. J. Armbrecht et al. (Am. J. Physiol., 236(6), e769-e774, 1979). These samples were separated by SDS-PAGE, followed by transferring on PVDF membrane (IPVH, pore size of 0.45, Millipore) in accordance with a usual procedure and assaying of calbindin D9K by the Western blotting method. Rabbit anti-calbindin D9K antibody (from Research Diagnostic Inc.) as the primary antibody and HRP anti-rabbit IgG (Bio-Rad) as the secondary antibody were used, and detected using ECL Plus kit (Bio-Rad). The detected protein bands were further quantified using Scion Image-analyzing software (from Scion Corp.).

CaT1 gene = CaT1 gene expression (mRNA, RT-PCR) in Caco-2 cells; assay type: cell-based; details: 72 hours, 1 mmol/L glucose 1-phosphate sodium salt or 10 nmol/L 1α,25-dihydroxyvitamin D, FIG. 3
Excerpt: (§1) As a target cell of 1α,25-dihydroxyvitamin D and a sugar-phosphate ester, Caco-2 cells (from Dainippon Pharmaceutical Co. Ltd.) were employed. Caco-2 cells are known to differentiate to epitherial-like cells of small intestine. The Caco-2 cells were suspended in culture medium (10% fetal calf serum, none essential amino acids for MEM, […]/MEM Earle) and added to an insert of a fibrillar collagen culture plate (from Becton Dickinson Inc.). To the plate also, the culture medium was added, and cultured according to a usual method. The media in the insert and the plate were renewed at a regular interval, and the culture was subjected to a test at 15 days of incubation.

24-hydroxylase gene = 24-hydroxylase gene expression (mRNA, RT-PCR) in Caco-2 cells; assay type: cell-based; details: 72 hours, 1 mmol/L glucose 1-phosphate sodium salt or 10 nmol/L 1α,25-dihydroxyvitamin D, FIG. 2
Excerpt: as §1

| Molecule | expression of calbindin D9K in small intestine (calbindin D9K) | gene expression of CaT1 (mRNA amount divided by housekeeping gene G3PDH) (CaT1 gene) | gene expression of 24-hydroxylase (mRNA amount divided by housekeeping gene G3PDH) (24-hydroxylase gene) |
| --- | --- | --- | --- |
| O=P([O-])([O-])O[C@H]1O[C@H](CO)[C@@H](O)[C@H](O)[C@H]1O.[Na+].[Na+] [glucose 1-phosphate sodium salt] | significantly enhance | – | – |
| 1α,25-dihydroxyvitamin D | – | significantly enhanced | significantly enhanced |
